Experimental data published in US8940724B2, “Quinoline derivitives and their uses” (Amgen Inc., priority 2009, dated 2015).
pKi: −log10 of the molar value.

test system: model of systemic lupus erythematosis; assay: not given; details: in vivo; cited from earlier work

For `O=C1NC(=O)/C(=C\c2ccc3nccnc3c2)S1` [AS 605240], the “onset of disease in a model of systemic lupus erythematosis” value is listed as “delay onset of disease”.

biological target: T1, p110δ (Homo sapiens, UniProt O00329); assay: not given; details: cited from earlier work
T1 sequence (O00329 1-1044): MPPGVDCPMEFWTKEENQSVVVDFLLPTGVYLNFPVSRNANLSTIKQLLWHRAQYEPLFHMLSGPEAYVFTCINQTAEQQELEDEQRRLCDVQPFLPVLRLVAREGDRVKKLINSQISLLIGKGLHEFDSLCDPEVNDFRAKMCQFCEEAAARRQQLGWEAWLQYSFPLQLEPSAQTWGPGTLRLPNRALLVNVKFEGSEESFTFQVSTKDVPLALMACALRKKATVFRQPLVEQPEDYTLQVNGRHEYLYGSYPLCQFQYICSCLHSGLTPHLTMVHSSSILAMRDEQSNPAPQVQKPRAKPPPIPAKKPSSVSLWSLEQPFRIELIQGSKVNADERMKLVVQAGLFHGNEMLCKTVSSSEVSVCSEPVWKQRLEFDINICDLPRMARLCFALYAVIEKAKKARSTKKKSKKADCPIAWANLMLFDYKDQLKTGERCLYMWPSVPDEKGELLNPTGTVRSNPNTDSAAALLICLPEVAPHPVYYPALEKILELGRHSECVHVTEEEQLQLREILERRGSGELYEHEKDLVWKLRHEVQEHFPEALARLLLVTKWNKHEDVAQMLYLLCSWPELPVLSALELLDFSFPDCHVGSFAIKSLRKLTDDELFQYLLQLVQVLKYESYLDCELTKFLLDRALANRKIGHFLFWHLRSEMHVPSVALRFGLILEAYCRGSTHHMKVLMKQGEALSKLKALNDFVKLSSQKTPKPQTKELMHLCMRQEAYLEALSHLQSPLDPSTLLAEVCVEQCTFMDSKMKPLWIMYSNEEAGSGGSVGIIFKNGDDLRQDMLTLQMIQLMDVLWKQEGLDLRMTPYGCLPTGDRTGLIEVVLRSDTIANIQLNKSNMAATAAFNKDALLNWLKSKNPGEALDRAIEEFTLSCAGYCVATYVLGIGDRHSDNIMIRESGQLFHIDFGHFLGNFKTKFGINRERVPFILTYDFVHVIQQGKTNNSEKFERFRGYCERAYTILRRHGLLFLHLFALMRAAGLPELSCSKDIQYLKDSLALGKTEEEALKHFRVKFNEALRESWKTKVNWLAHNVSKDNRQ

For `Cc1ccccc1-n1c(Cn2cnc3c(N)ncnc32)nc2cccc(C)c2c1=O` [IC87114], the “inhibits p110δ” value is listed as “high nanomolar range (triple digit)”.

test system: mouse model of rheumatoid arthritis; assay: not given; details: in vivo; cited from earlier work

For `O=C1NC(=O)/C(=C\c2ccc3nccnc3c2)S1` [AS 605240], the “efficacy in a mouse model of rheumatoid arthritis” value is listed as “efficacious”.

biological target: T2, PI3Kδ (Homo sapiens, UniProt O00329); assay: PI3Kδ Alphascreen assay; format: biochemical; details: not given
T2 construct: Full length p110 subunits of PI3k α, β and δ, N-terminally labeled with polyHis tag; polyHis (N); made in house; host or cells: Sf9 insect cells (baculovirus)
T2 sequence (P27986 whole entry partner, one chain of several): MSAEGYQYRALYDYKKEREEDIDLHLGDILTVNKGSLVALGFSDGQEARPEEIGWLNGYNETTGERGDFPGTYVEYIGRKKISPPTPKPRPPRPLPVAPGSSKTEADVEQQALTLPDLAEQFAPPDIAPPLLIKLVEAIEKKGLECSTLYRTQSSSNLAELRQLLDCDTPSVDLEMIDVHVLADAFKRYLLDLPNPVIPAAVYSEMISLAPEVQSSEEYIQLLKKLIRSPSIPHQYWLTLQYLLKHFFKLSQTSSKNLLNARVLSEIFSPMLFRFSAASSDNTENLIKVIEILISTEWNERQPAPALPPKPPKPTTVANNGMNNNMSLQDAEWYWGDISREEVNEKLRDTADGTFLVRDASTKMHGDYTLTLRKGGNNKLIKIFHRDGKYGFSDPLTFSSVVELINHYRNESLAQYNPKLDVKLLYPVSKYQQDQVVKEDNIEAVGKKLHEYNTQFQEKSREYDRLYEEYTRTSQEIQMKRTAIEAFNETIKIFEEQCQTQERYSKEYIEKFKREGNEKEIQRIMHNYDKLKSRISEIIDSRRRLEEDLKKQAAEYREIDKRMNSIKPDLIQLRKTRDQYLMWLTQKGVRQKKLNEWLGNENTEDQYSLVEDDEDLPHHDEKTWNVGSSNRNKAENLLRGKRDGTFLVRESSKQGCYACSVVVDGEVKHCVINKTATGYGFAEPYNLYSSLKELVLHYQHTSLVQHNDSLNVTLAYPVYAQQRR

Compared with `Cc1c(-c2cccnc2)nc2cc(F)cc(F)c2c1N(C(=O)C(F)(F)F)c1cncc(N2CCOCC2)c1` [N-(5,7-difluoro-3-methyl-2-(3-pyridinyl)-4-quinolinyl)-2,2,2-trifluoro-N-(5-(4-morpholinyl)-3-pyridinyl)acetamide], `Cc1c(NCC(=O)O)nc2cc(F)cc(F)c2c1Nc1cncc(N2CCOCC2)c1` [N-(5,7-difluoro-3-methyl-4-((5-(4-morpholinyl)-3-pyridinyl)-amino)-2-quinolinyl)glycine] is 0.45 log units lower in pKi: 7.33 for the first, 6.88 for the second.

Compared with `COc1ccc(-c2ncc(N3CCOCC3)cc2Nc2c(C)c(-c3cc(C)ccn3)nc3cc(F)cc(F)c23)cn1` [N-(5,7-difluoro-3-methyl-2-(4-methyl-2-pyridinyl)-4-quinolinyl)-6′-methoxy-5-(4-morpholinyl)-2,3′-bipyridin-3-amine], `COc1cncc(-c2ncc(N3CCOCC3)cc2Nc2c(C)c(-c3cc(C)ccn3)nc3c(Cl)cccc23)c1` [N-(8-chloro-3-methyl-2-(4-methyl-2-pyridinyl)-4-quinolinyl)-5′-methoxy-5-(4-morpholinyl)-2,3′-bipyridin-3-amine] is 0.45 log units lower in pKi: 8.50 for the first, 8.05 for the second.

Compared with `Cc1ccnc(-c2nc3cc(F)cc(F)c3c(Nc3cncc(-c4ccnc(N)n4)c3)c2C)c1` [N-(5-(2-amino-4-pyrimidinyl)-3-pyridinyl)-5,7-difluoro-3-methyl-2-(4-methyl-2-pyridinyl)-4-quinolinamine], `Cc1ccnc(-c2nc3cc(F)cc(F)c3c(Nc3cncc(C4=CCOCC4)c3)c2C)c1` [N-(5-(3,6-dihydro-2H-pyran-4-yl)-3-pyridinyl)-5,7-difluoro-3-methyl-2-(4-methyl-2-pyridinyl)-4-quinolinamine] is 0.43 log units lower in pKi: 8.27 for the first, 7.84 for the second. The first binds more tightly here.

Compared with `Cc1c(-c2ccccc2S(C)(=O)=O)nc2cc(F)cc(F)c2c1Nc1cncc(C2=CCOCC2)c1` [N-(5-(3,6-dihydro-2H-pyran-4-yl)-3-pyridinyl)-5,7-difluoro-3-methyl-2-(2-(methylsulfonyl)phenyl)-4-quinolinamine], `Cc1c(N2CCOCC2)nc2cc(F)cc(F)c2c1Nc1cncc(C2=CCOCC2)c1` [N-(5-(3,6-dihydro-2H-pyran-4-yl)-3-pyridinyl)-5,7-difluoro-3-methyl-2-(4-morpholinyl)-4-quinolinamine] is 1.58 log units lower in pKi: 8.75 for the first, 7.17 for the second. The first binds more tightly here.

Going from `CCOC(=O)N1CCN(c2nc3cc(F)cc(F)c3c(Nc3cncc(N4CCOCC4)c3)c2C)CC1` [ethyl 4-(5,7-difluoro-3-methyl-4-((5-(4-morpholinyl)-3-pyridinyl)amino)-2-quinolinyl)-1-piperazinecarboxylate] to `COC(=O)N1CCN(c2nc3cc(F)cc(F)c3c(Nc3cncc(N4CCOCC4)c3)c2C)CC1` [methyl 4-(5,7-difluoro-3-methyl-4-((5-(4-morpholinyl)-3-pyridinyl)amino)-2-quinolinyl)-1-piperazinecarboxylate], the pKi rises from 7.34 to 8.03 (0.69 log units). The second binds more tightly here.

Compared with `COC(=O)N1CCN(c2nc3cc(F)cc(F)c3c(Nc3cc(N4CCOCC4)cnc3N3CCOCC3)c2C)CC1` [methyl 4-(4-((2,5-di-4-morpholinyl-3-pyridinyl)amino)-5,7-difluoro-3-methyl-2-quinolinyl)-1-piperazinecarboxylate], `Cc1c(N2CCN(C(=O)OC(C)(C)C)CC2)nc2cc(F)cc(F)c2c1Nc1cc(N2CCOCC2)cnc1N1CCOCC1` [tert-butyl 4-(4-((2,5-di-4-morpholinyl-3-pyridinyl)amino)-5,7-difluoro-3-methyl-2-quinolinyl)-1-piperazinecarboxylate] is 0.68 log units lower in pKi: 8.15 for the first, 7.47 for the second. The first binds more tightly here.

Going from `COC(=O)N1CCN(c2nc3cc(F)cc(F)c3c(Nc3cncc(N4CCOCC4)c3)c2C)C[C@H]1C` [methyl (2R)-4-(5,7-difluoro-3-methyl-4-((5-(4-morpholinyl)-3-pyridinyl)amino)-2-quinolinyl)-2-methyl-1-piperazinecarboxylate] to `COC(=O)N1CCN(c2nc3cc(F)cc(F)c3c(Nc3cncc(N4CCOCC4)c3)c2C)C[C@@H]1C` [methyl (2S)-4-(5,7-difluoro-3-methyl-4-((5-(4-morpholinyl)-3-pyridinyl)amino)-2-quinolinyl)-2-methyl-1-piperazinecarboxylate], the pKi rises from 6.73 to 7.82 (1.09 log units). The second binds more tightly here.

First: COC(=O)N1CCN(c2nc3cc(F)cc(F)c3c(Nc3cncc(N4CCOCC4)c3)c2C)[C@H](C)C1 [methyl (3R)-4-(5,7-difluoro-3-methyl-4-((5-(4-morpholinyl)-3-pyridinyl)amino)-2-quinolinyl)-3-methyl-1-piperazinecarboxylate]
Second: Cc1c(N2CCN(C(=O)OC(C)(C)C)C[C@@H]2C)nc2cc(F)cc(F)c2c1Nc1cncc(N2CCOCC2)c1 [tert-butyl (3S)-4-(5,7-difluoro-3-methyl-4-((5-(4-morpholinyl)-3-pyridinyl)amino)-2-quinolinyl)-3-methyl-1-piperazinecarboxylate]
The pKi of the first is 1.05 log units higher: 7.50 for the first, 6.45 for the second. The first binds more tightly here.

Going from `Cc1c(N2CCC[C@@H]2C(=O)OC(C)(C)C)nc2cc(F)cc(F)c2c1Nc1cncc(N2CCOCC2)c1` [tert-butyl 1-(5,7-difluoro-3-methyl-4-((5-(4-morpholinyl)-3-pyridinyl)amino)-2-quinolinyl)-D-prolinate] to `Cc1c(N2CCC[C@H]2C(=O)OC(C)(C)C)nc2cc(F)cc(F)c2c1Nc1cncc(N2CCOCC2)c1` [tert-butyl 1-(5,7-difluoro-3-methyl-4-((5-(4-morpholinyl)-3-pyridinyl)amino)-2-quinolinyl)-L-prolinate], the pKi rises from 7.74 to 8.65 (0.91 log units). The second binds more tightly here.

Going from `Cc1c(N2CCN(C(=O)OC(C)(C)C)CC2)nc2cc(F)cc(F)c2c1Nc1cncc(N2CCOCC2)c1` [tert-butyl 4-(5,7-difluoro-3-methyl-4-((5-(4-morpholinyl)-3-pyridinyl)amino)-2-quinolinyl)-1-piperazinecarboxylate] to `Cc1c(N2CCN(C(=O)OC(C)(C)C)[C@H](C)C2)nc2cc(F)cc(F)c2c1Nc1cncc(N2CCOCC2)c1` [tert-butyl (2R)-4-(5,7-difluoro-3-methyl-4-((5-(4-morpholinyl)-3-pyridinyl)amino)-2-quinolinyl)-2-methyl-1-piperazinecarboxylate], the pKi falls from 6.45 to 6.08 (0.37 log units). The first binds more tightly here.

For `Cc1c(N2CCN(C(=O)OC(C)(C)C)[C@@H](C)C2)nc2cc(F)cc(F)c2c1Nc1cncc(N2CCOCC2)c1` [tert-butyl (2S)-4-(5,7-difluoro-3-methyl-4-((5-(4-morpholinyl)-3-pyridinyl)amino)-2-quinolinyl)-2-methyl-1-piperazinecarboxylate], the pKi was 6.95.

test system: protein kinases; assay: not given; details: cited from earlier work

In the case of `Cc1ccccc1-n1c(Cn2cnc3c(N)ncnc32)nc2cccc(C)c2c1=O` [IC87114], the “activity against any protein kinases tested” value is given as “no activity”.

test system: ovalbumin-induced airway inflammation; assay: not given; details: cited from earlier work

For `Cc1ccccc1-n1c(Cn2cnc3c(N)ncnc32)nc2cccc(C)c2c1=O` [IC87114], the “inflammation and disease in a murine model of asthma” value is listed as “significantly ameliorate inflammation and disease”.
